# Assay results reported in the supplement of paper PMC10307832.
# Experiments:
# Assay in all cases: relative viability (nuclei count vs DMSO), 5 days (fraction); higher = more cells survive
# [1] = compound: CCn1c(-c2nonc2N)nc2c(C#CC(C)(C)O)ncc(OC[C@H]3CCCNC3)c21 + Cc1cc(Nc2cc(N3CCN(C)CC3)nc(Sc3ccc(NC(=O)C4CC4)cc3)n2)n[nH]1 [Tozasertib] (partner 0.1 µM)
# Outline: (§1)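 Dosing by pin tool came one day after lung cancer cell lines were seeded in 1536-well plates, using either one drug or a fixed anchor-drug dose plus five library-drug doses (not always all listed) in √10 steps. After 5 days, nuclei were counted on 4× images. Relative viability is treated-well nuclei count divided by vehicle-well nuclei count, and values are medians of duplicate plates.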
# [2] = compound: CCn1c(-c2nonc2N)nc2c(C#CC(C)(C)O)ncc(OC[C@H]3CCCNC3)c21 + COc1cc2c(Oc3ccc(NC(=O)C4(C(=O)Nc5ccc(F)cc5)CC4)cc3F)ccnc2cc1OCCCN1CCOCC1 [Foretinib] (partner 0.25 µM)
# Outline: as §1
# [3] = compound: CCn1c(-c2nonc2N)nc2c(C#CC(C)(C)O)ncc(OC[C@H]3CCCNC3)c21 + Nc1nc2[nH]cc(CCc3ccc(C(=O)N[C@@H](CCC(=O)O)C(=O)O)cc3)c2c(=O)[nH]1 [Pemetrexed] (partner 0.2 µM)
# Outline: as §1
# BAM7 + Pemetrexed = compound: CCOC1=CC=CC=C1N=NC2=C(NN(C2=O)C3=NC(=CS3)C4=CC=CC=C4)C [BAM7] + Nc1nc2[nH]cc(CCc3ccc(C(=O)N[C@@H](CCC(=O)O)C(=O)O)cc3)c2c(=O)[nH]1 [Pemetrexed] (partner 0.2 µM)
# Outline: as §1
Cell Line,relative viability ([1]; first compound 0.01 µM),relative viability ([1]; first compound 0.03162 µM),relative viability ([1]; first compound 0.1 µM),relative viability ([1]; first compound 0.3162 µM),relative viability ([1]; first compound 1 µM),relative viability ([2]; first compound 0.01 µM),relative viability ([2]; first compound 0.03162 µM),relative viability ([2]; first compound 0.1 µM),relative viability ([2]; first compound 0.3162 µM),relative viability ([2]; first compound 1 µM),relative viability ([3]; first compound 0.01 µM),relative viability ([3]; first compound 0.03162 µM),relative viability ([3]; first compound 0.1 µM),relative viability ([3]; first compound 0.3162 µM),relative viability ([3]; first compound 1 µM),relative viability (BAM7 + Pemetrexed; first compound 0.5 µM),relative viability (BAM7 + Pemetrexed; first compound 5 µM),relative viability (BAM7 + Pemetrexed; first compound 15.81 µM),relative viability (BAM7 + Pemetrexed; first compound 50 µM)
NCI-H2342,0.521,0.588,0.466,0.572,0.612,1.1,1.19,1.04,1.07,1.09,0.751,0.73,0.767,0.754,0.8,0.677,0.712,0.734,0.72
ChaGo-K-1,0.216,0.245,0.228,0.248,0.248,0.802,0.849,0.852,0.911,0.896,0.262,0.254,0.26,0.258,0.248,0.256,0.257,0.249,0.272
NCI-H650,0.724,0.746,0.73,0.723,0.694,1.01,0.979,0.993,1,1.13,0.957,0.862,0.988,1.02,0.919,1.03,0.979,0.987,1
COR-L23,0.202,0.19,0.235,0.188,0.18,0.835,1.08,0.903,1.02,1,0.212,0.207,0.202,0.187,0.196,0.209,0.182,0.193,0.206
COR-L 105,0.31,0.432,0.407,0.367,0.374,1.01,1,1.04,1.03,1.16,1.18,1.21,1.18,1.23,1.3,1.02,1.31,1.01,1.15
LK-2,0.165,0.171,–,–,0.184,0.994,1.15,–,–,1.09,0.277,0.333,0.269,0.204,0.234,0.277,0.249,0.32,0.266
201T,0.954,0.948,0.914,0.933,0.963,1.14,–,1.14,1.09,0.995,0.321,0.317,0.343,0.333,0.311,0.299,0.324,0.327,0.313
NCI-H596,1.07,0.886,0.862,0.951,0.792,0.895,1,0.744,0.84,0.639,0.48,–,0.443,0.47,0.5,0.544,0.498,0.452,0.559
H3255,0.549,0.646,0.63,0.547,0.615,0.833,0.826,0.891,0.875,0.777,0.543,0.571,0.618,0.536,0.548,0.578,0.543,0.548,0.545
NCI-H647,0.26,0.326,0.255,0.312,0.396,1.26,1.1,1.14,1.16,1.22,0.196,0.168,0.179,0.163,0.142,0.168,0.2,0.188,0.17
NCI-H2023,0.339,0.379,0.341,0.305,0.343,0.775,0.887,0.801,0.781,0.755,0.211,0.26,0.211,0.176,0.178,0.229,0.248,0.174,0.286
NCI-H23,0.398,0.438,0.568,0.384,0.432,0.971,1.15,1.06,0.918,0.916,0.647,0.642,0.58,0.579,0.611,0.832,0.851,0.622,0.709
NCI-H1944,0.287,0.247,0.266,0.236,0.249,0.755,0.888,0.821,0.851,0.876,0.618,0.622,0.657,0.565,0.631,0.581,0.541,0.512,0.512
NCI-H1793,0.361,0.421,0.487,0.343,0.35,0.733,0.614,0.632,0.55,0.554,0.864,0.917,–,0.845,0.923,0.931,0.728,0.809,1.13
NCI-H520,0.41,0.482,0.323,0.358,0.335,0.743,0.902,0.704,0.524,0.392,0.565,0.686,0.577,0.523,0.352,0.696,0.776,0.626,0.569
NCI-H460,0.533,0.542,0.447,0.461,0.532,0.949,1.11,0.979,0.978,1.11,0.0616,0.0628,0.063,0.0642,0.0565,0.0639,0.0614,0.0597,0.0573
EKVX,0.341,0.37,0.416,0.405,0.368,0.85,0.809,0.723,0.797,0.75,0.424,0.388,0.409,0.393,0.355,0.425,0.409,0.349,0.377

Cell Line,relative viability ([1]; first compound 0.01 µM),relative viability ([1]; first compound 0.03162 µM),relative viability ([1]; first compound 0.1 µM),relative viability ([1]; first compound 0.3162 µM),relative viability ([1]; first compound 1 µM),relative viability ([2]; first compound 0.01 µM),relative viability ([2]; first compound 0.03162 µM),relative viability ([2]; first compound 0.1 µM),relative viability ([2]; first compound 0.3162 µM),relative viability ([2]; first compound 1 µM),relative viability ([3]; first compound 0.01 µM),relative viability ([3]; first compound 0.03162 µM),relative viability ([3]; first compound 0.1 µM),relative viability ([3]; first compound 0.3162 µM),relative viability ([3]; first compound 1 µM),relative viability (BAM7 + Pemetrexed; first compound 0.5 µM),relative viability (BAM7 + Pemetrexed; first compound 5 µM),relative viability (BAM7 + Pemetrexed; first compound 15.81 µM),relative viability (BAM7 + Pemetrexed; first compound 50 µM)
NCI-H358,0.0952,0.0863,0.103,0.1,0.097,0.646,0.977,0.657,0.73,0.663,0.231,0.192,0.176,0.182,0.166,–,0.177,0.166,0.159
EPLC-272H,0.337,0.512,0.261,0.186,0.274,0.657,0.711,0.675,0.632,0.738,0.299,0.301,0.346,0.297,0.282,0.328,0.371,0.401,0.322
NCI-H1395,0.776,0.763,0.736,0.651,0.659,0.945,0.922,0.945,0.871,0.818,0.745,0.811,0.793,0.647,0.769,0.856,0.91,0.857,1.07
NCI-H2126,0.829,0.885,0.806,0.817,0.863,1.1,1.16,1.25,1.11,1.2,0.706,0.692,0.684,0.731,0.669,0.746,0.672,0.574,0.641
LXF-289,0.218,0.194,0.169,0.184,0.197,0.983,1.05,0.979,0.952,0.955,0.922,0.95,0.925,0.84,0.938,1.01,0.994,0.918,0.865
NCI-H2009,0.72,0.811,0.724,0.668,0.771,1.22,1.21,1.31,1.22,1.22,1.08,1.09,1.06,1.14,1.06,1.03,1.06,1.03,1.01
SW 900,0.626,0.747,0.646,0.561,0.579,0.92,0.887,0.875,0.798,0.768,0.488,0.502,0.465,0.385,0.499,–,0.44,–,0.505
NCI-H2405,0.768,0.806,0.692,0.71,0.706,1.06,1.05,0.948,1.03,1.05,1.03,1.12,0.964,0.96,1.13,1.11,1.06,1.09,1.11
NCI-H1755,0.617,0.498,0.572,0.55,0.61,0.993,0.933,0.899,0.841,0.95,0.476,0.439,0.419,0.393,0.383,0.401,0.417,0.423,0.408
HCC-78,0.391,0.414,0.36,0.41,0.405,0.515,0.523,0.539,0.532,0.527,0.864,0.92,0.952,0.871,0.669,0.929,0.913,0.963,0.863
LOU-NH91,0.702,0.763,0.634,0.665,0.732,0.929,0.962,0.964,0.861,0.907,0.403,0.366,0.419,0.4,0.399,0.347,0.436,0.392,0.346
NCI-H3122,0.369,0.405,0.396,0.369,0.337,0.923,0.941,0.962,1,0.883,0.206,0.208,0.201,0.195,0.2,0.194,0.191,0.196,0.195
HCC-827,0.391,0.47,0.383,0.449,0.43,1.02,1.09,1.01,1.06,1.02,0.287,0.315,0.241,0.249,0.267,0.27,0.25,0.28,0.247
SK-LU-1,0.335,0.387,0.349,0.306,0.344,0.754,0.896,0.737,0.816,0.749,0.869,0.985,0.823,0.929,0.855,0.906,1.07,0.905,0.99
NCI-H1975,0.768,0.715,0.757,0.777,0.658,0.983,1.04,0.937,0.95,0.885,0.278,0.323,0.29,0.279,0.295,0.292,0.276,0.269,0.288
NCI-H1651,0.633,0.624,0.794,0.762,0.805,0.865,0.807,0.743,0.521,0.779,0.653,0.605,0.597,0.574,0.572,0.548,0.586,0.639,0.569
NCI-H441,0.699,0.53,0.538,0.57,0.56,1.08,0.967,0.836,1.16,0.875,0.295,0.251,0.228,0.234,0.272,0.299,0.252,0.277,0.242
